Test results taken from patent US9458135B2, “Dihydroquinoline-2-one derivatives” (Hoffmann-La Roche Inc., priority 2014, dated 2016).

Columns and labels:
[1] = molecular target: human CYP11B1 (Homo sapiens (Human), UniProt P15538); experiment: G-402 cellular enzyme assay, human CYP11B1 (cortisol release, HTRF); assay type: cell-based; details: G-402 cells expressing human CYP11B1; 1 μM Deoxycortisol
Text: (§1) Herein we identified the use of the G-402 cell line as a host cell to ectopically express (transiently or stably) enzymes of the CYP11 family. Specifically we developed stable G-402 cells expressing ectopically human CYP11B1, human CYP11B2, human CYP11A1, cynmolgus CYP11B1 or cynomolgus CYP11B2 enzyme activity. Importantly the identified cell line G-402 expresses co-factors (adrenodoxin and adrenodoxin reductase) important for the activity of the CYP11 family and no relevant enzyme activity of the CYP11 family (in comparison to H295R cells) was detected in these cells. Therefore the G-402 cell line is uniquely suited as a host cell for the ectopic expression of enzymes from the CYP11 family.
(§2) The expression plasmids contains the ORF for either huma/cyno CYP11B1 or CYP11B2 under the control of a suitable promoter (CMV-promoter) and a suitable resistance marker (neomycin). Using standard techniques the expression plasmid is transfected into G-402 cells and these cells are then selected for expressing the given resistance markers. Individual cell-clones are then selected and assessed for displaying the desired enzymatic activity using 11-Deoxycorticosterone (Cyp11B2) or 11-Deoxycortisol (Cyp11B1) as a substrate.
(§3) G-402 cells expressing CYP11 constructs were established as described above and maintained in McCoy's 5a Medium Modified, ATCC Catalog No. 30-2007 containing 10% FCS and 400 μg/ml G418 (Geneticin) at 37° C. under an atmosphere of 5% CO2/95% air. Cellular enzyme assays were performed in DMEM/F12 medium containing 2.5% charcoal treated FCS and appropriate concentration of substrate (0.3-10 uM 11-Deoxycorticosterone, 11-Deoxycortisol or Corticosterone). For assaying enzymatic activity, cells were plated onto 96 well plates and incubated for 16 h. An aliquot of the supernatant is then transferred and analyzed for the concentration of the expected product (Aldosterone for CYP11B2; Cortisol for CYP11B1). The concentrations of these steroids can be determined using HTRF assays from CisBio analyzing either Aldosterone or Cortisol.
(§4) Inhibition of the release of produced steroids can be used as a measure of the respective enzyme inhibition by test compounds added during the cellular enzyme assay. The dose dependent inhibition of enzymatic activity by a compound is calculated by means of plotting added inhibitor concentrations (x-axes) vs. measured steroid/product level (y-axes). The inhibition is then calculated by fitting the following 4-parameter sigmoidal function (Morgan-Mercer-Flodin (MMF) model) to the raw data points using the least squares method:
(§5) [formula] wherein, A is the maximum y value, B is the EC50 factor determined using XLFit, C is the minimum y value and D is the slope value.
(§6) EC50 values for compounds claimed herein were tested with the G402-based assay system described. Cyp11B2 enzyme activity was tested in presence of 1 μM Deoxycorticosterone and variable amounts of inhibitors; Cyp11B1 enzyme activity was tested in presence of 1 μM Deoxycortisol and variable amounts of inhibitors.

[2] = molecular target: human CYP11B2 (Homo sapiens (Human), UniProt P19099); experiment: G-402 cellular enzyme assay, human CYP11B2 (aldosterone release, HTRF); assay type: cell-based; details: G-402 cells expressing human CYP11B2; 1 μM Deoxycorticosterone
Text: as §1, §2, §3, §4, §5, §6

[3] = system: rat model of chronic kidney disease; details: cited from earlier work; for plasma aldosterone: FAD286 following 4 weeks of treatment, spironolactone at 4 and 8 weeks; for renal effects (albuminuria, azotemia, renovascular hypertrophy, glomerular injury, PAI-1 and osteopontin mRNA, tubulointerstitial fibrosis): angiotensin II and high salt treatment
[4] = system: rats with experimental heart failure; details: cited from earlier work
[5] = system: patients with primary aldosteronism; details: cited from earlier work

Chain of human CYP11B2 (P19099 25-503): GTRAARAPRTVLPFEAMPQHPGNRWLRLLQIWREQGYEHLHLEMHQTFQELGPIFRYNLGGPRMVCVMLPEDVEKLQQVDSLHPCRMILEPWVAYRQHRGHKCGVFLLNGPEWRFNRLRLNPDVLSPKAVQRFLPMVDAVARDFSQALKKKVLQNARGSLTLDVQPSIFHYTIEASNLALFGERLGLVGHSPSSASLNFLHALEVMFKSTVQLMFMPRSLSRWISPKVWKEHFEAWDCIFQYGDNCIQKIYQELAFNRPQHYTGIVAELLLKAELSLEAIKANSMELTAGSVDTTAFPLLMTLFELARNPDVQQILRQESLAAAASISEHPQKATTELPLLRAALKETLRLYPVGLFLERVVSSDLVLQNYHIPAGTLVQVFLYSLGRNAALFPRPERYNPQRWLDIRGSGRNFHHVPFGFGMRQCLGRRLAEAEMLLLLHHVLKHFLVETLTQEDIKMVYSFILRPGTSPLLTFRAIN
Chain of human CYP11B1 (P15538 25-503): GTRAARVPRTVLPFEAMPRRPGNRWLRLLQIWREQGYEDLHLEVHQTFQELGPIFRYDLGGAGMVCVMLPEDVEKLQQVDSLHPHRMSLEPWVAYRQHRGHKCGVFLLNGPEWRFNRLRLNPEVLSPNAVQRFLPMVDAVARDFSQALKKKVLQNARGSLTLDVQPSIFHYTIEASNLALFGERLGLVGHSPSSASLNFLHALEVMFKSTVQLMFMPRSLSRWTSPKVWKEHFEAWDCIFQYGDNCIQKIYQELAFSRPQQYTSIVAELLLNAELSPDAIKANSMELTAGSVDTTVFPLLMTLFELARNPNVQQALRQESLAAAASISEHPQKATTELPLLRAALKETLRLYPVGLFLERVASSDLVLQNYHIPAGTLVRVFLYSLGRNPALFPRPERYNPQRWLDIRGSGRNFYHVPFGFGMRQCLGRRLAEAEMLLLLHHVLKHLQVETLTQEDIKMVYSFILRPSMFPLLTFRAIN

| Structure (SMILES) | EC50 [1] [nM] | EC50 [2] [nM] | plasma aldosterone [3] | renal effects (albuminuria, azotemia, renovascular hypertrophy, glomerular injury, PAI-1 and osteopontin mRNA, tubulointerstitial fibrosis) [3] | angiotensin II and salt-stimulated PAI-1 mRNA expression in the aorta and the heart [3] | other results |
| --- | --- | --- | --- | --- | --- | --- |
| CN1C(=O)CCc2cc(-c3cncc(CC(=O)Nc4cccc(Cl)c4)c3)ccc21 [Example 29, N-(3-Chloro-phenyl)-2-[5-(1-methyl-2-oxo-1,2,3,4-tetrahydro-quinolin-6-yl)-pyridin-3-yl]-acetamide] | 307 | 12.7 |  |  |  |  |
| CN1C(=O)CCc2cc(-c3cncc(CC(=O)Nc4cccc(Cl)n4)c3)ccc21 [Example 30, N-(6-Chloro-pyridin-2-yl)-2-[5-(1-methyl-2-oxo-1,2,3,4-tetrahydro-quinolin-6-yl)-pyridin-3-yl]-acetamide] | 40.5 | 6.8 |  |  |  |  |
| N#Cc1ccc([C@H]2CCCc3cncn32)cc1 [FAD286] |  |  | reduced | prevented these renal effects | not | blood pressure and cardiovascular function and structure [4]: improved; kidney function and morphology [4]: improve |
| N#Cc1ccc([C@H]2CCc3cncn32)c(F)c1 [LCI699] |  |  |  |  |  | selectivity (effects on the glucocorticoid axis) [5]: poor selectivity; blood pressure ([5]; oral): mildly decreased; circulating aldosterone levels ([5]; oral): significantly lower; hypokalemia ([5]; oral): corrected |
| CC(=O)S[C@@H]1CC2=CC(=O)CC[C@]2(C)[C@H]2CC[C@@]3(C)[C@@H](CC[C@@]34CCC(=O)O4)[C@H]12 [spironolactone] |  |  | increased | prevented these renal effects | enhanced |  |
